Drawing on ChEMBL document CHEMBL1121609, “Peptide sweeteners. 4. Hydroxy and methoxy substitution of the aromatic ring in L-aspartyl-L-phenylalanine methyl ester. Structure-taste relationships” (J Med Chem, 1980), this text covers Taste for 11 molecules.

The nature of assay [1]: Determined to achieve reproducible taste; ++ indicates ~10-40 times as sweet as sucrose.
Assay [2] in a line: Determined to achieve reproducible taste; + indicates ~ 1-5 times as sweet as sucrose.
Assay [3] is described as follows: Determined to achieve reproducible taste; + indicates ~1-5 times as sweet as sucrose.

SMILES strings stand for the structures. Non-standard residues stand in square brackets, D forms with d. Residues, ends and D or L forms follow the SMILES beside them. ξ: configuration not given here. Tyr(3-OMe) = COc1cc(C[C@H](N)C(=O)O)ccc1O; Phe(3-OMe) = COc1cccc(C[C@H](N)C(=O)O)c1; Dopa = N[C@@H](Cc1ccc(O)c(O)c1)C(=O)O; ξPhe(3-OMe) = COc1cccc(CC(N)C(=O)O)c1; mTyr = N[C@@H](Cc1cccc(O)c1)C(=O)O; ξmTyr = NC(Cc1cccc(O)c1)C(=O)O; ξY = NC(Cc1ccc(O)cc1)C(=O)O; ξD = NC(CC(=O)O)C(=O)O

As to `COC(=O)C(Cc1ccccc1O)NC(=O)[C@@H](N)CC(=O)O` (stereo partly specified), in assay [1], the Taste is on record as ~10-40 times as sweet as sucrose.

Take `COC(=O)[C@H](Cc1ccccc1O)NC(=O)[C@@H](N)CC(=O)O`: the Taste in assay [1] is ~10-40 times as sweet as sucrose. Regarding `COC(=O)[C@H](Cc1ccc(OC)cc1)NC(=O)[C@@H](N)CC(=O)O` (H-Asp-Tyr(Me)-OMe), the Taste in assay [2] was ~ 1-5 times as sweet as sucrose.

As for `COC(=O)[C@H](Cc1ccc(O)cc1)NC(=O)[C@@H](N)CC(=O)O` (H-Asp-Tyr-OMe), the Taste in assay [1] was ~10-40 times as sweet as sucrose.

Take `COC(=O)[C@H](Cc1ccc(O)c(O)c1)NC(=O)[C@@H](N)CC(=O)O` (H-Asp-[Dopa]-OMe): the Taste in assay [3] was ~1-5 times as sweet as sucrose. With `COC(=O)[C@H](Cc1cccc(OC)c1)NC(=O)[C@@H](N)CC(=O)O` (H-Asp-[Phe(3-OMe)]-OMe), the Taste in assay [1] is ~10-40 times as sweet as sucrose.

As for `COC(=O)[C@H](Cc1cccc(O)c1)NC(=O)[C@@H](N)CC(=O)O` (H-Asp-[mTyr]-OMe), the Taste in assay [1] is on record as ~10-40 times as sweet as sucrose. On the same count and under the same terms, as for `COC(=O)C(Cc1cccc(OC)c1)NC(=O)[C@@H](N)CC(=O)O` (stereo partly specified) (H-Asp-[ξPhe(3-OMe)]-OMe), the figure is ~10-40 times as sweet as sucrose; as for `COC(=O)C(Cc1ccc(O)cc1)NC(=O)[C@@H](N)CC(=O)O` (stereo partly specified) (H-Asp-[ξY]-OMe), ~10-40 times as sweet as sucrose. The same measure, in the same setting: as for `COC(=O)C(Cc1cccc(O)c1)NC(=O)[C@@H](N)CC(=O)O` (stereo partly specified) (H-Asp-[ξmTyr]-OMe), the figure is ~10-40 times as sweet as sucrose. As to `COC(=O)[C@H](Cc1ccc(O)c(OC)c1)NC(=O)C(N)CC(=O)O` (stereo partly specified) (H-[ξD]-[Tyr(3-OMe)]-OMe), the Taste in assay [3] was ~1-5 times as sweet as sucrose.
